Several values for one entry are separate records, joined by “and”; a condition that tells them apart may be missing. Equal values may be shown once.
Experiments:
[1] = molecular target: T1, Thromboxane A2 receptor (Rattus norvegicus, UniProt P34978); assay: In vitro thromboxane A2 receptor antagonism through inhibition of U-46619-induced contraction of rat isolated thoracic aortic strip; format: functional; conditions: read-out: pA2 (converted)
T1 sequence (P34978 whole entry): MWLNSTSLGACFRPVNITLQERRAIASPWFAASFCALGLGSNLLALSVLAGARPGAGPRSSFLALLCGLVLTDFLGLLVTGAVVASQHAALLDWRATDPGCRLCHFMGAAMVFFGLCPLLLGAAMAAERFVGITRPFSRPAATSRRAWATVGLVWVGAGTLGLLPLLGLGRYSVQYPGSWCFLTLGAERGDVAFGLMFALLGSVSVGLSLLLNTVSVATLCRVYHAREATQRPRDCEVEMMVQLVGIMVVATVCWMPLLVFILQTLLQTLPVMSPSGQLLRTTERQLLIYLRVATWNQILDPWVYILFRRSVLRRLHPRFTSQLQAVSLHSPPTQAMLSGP

[2] = molecular target: T2, Thromboxane A2 receptor (Homo sapiens, UniProt P21731); assay: In vitro thromboxane A2 receptor antagonism through inhibition of U-46619-induced platelet aggregation in human whole blood; format: functional, tissue-based; conditions: read-out: pA2 (converted)
T2 sequence (P21731 whole entry): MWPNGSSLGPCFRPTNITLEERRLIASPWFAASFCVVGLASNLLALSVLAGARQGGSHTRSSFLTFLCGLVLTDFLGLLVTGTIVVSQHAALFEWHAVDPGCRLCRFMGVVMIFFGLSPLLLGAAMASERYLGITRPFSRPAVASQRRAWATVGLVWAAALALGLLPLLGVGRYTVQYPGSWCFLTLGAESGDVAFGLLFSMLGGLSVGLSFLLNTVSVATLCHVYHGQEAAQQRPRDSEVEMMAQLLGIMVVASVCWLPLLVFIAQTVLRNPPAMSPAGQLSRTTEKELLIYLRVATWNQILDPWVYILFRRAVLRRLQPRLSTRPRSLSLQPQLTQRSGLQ

[3] = molecular target: T3, Thromboxane A2 receptor (Rattus norvegicus) (UniProt P34978); assay: In vitro thromboxane receptor antagonism through inhibition of U-46619-induced contraction of rat isolated thoracic aortic strip; format: functional
T3 sequence (whole entry): T1 sequence (P34978 whole entry)

Structure (SMILES) | Kb [1] | Kb [2] | pKb [3]
O=C(O)CC/C=C\CO[C@H]1[C@@H](OCc2ccc(-c3cccc(CO)c3)cc2)CC[C@@H]1N1CCCCCC1 | 0.0794 µM | 0.00501 µM | –
CNS(=O)(=O)Cc1ccc(-c2ccc(COC3CC[C@H](N4CCCCCC4)[C@H]3OC/C=C\CCC(=O)O)cc2)cc1 (stereo not given in full) | 0.0158 µM | 0.00316 µM | –
CS(=O)(=O)Nc1ccccc1-c1ccc(CO[C@H]2CC[C@H](N3CCCCCC3)[C@H]2OC/C=C\CCC(=O)O)cc1 | 0.0631 µM | 0.00631 µM | –
O=C(O)CC/C=C\CO[C@H]1C(OCc2ccc(-c3ccccc3CCO)cc2)CC[C@@H]1N1CCCCCC1 (stereo not given in full) | 0.0316 µM | 0.002 µM | –
O=C(O)CC/C=C\CO[C@H]1C(OCc2ccc(-c3ccc(CO)cc3)cc2)CC[C@@H]1N1CCCCCC1 (stereo not given in full) | 0.02 µM | 0.00316 µM | –
CC(=O)NCc1ccc(-c2ccc(COC3CC[C@H](N4CCCCCC4)[C@H]3OC/C=C\CCC(=O)O)cc2)cc1 (stereo not given in full) | 0.02 µM | 0.00251 µM | –
NC(=O)c1ccccc1-c1ccc(COC2CC[C@H](N3CCCCCC3)[C@H]2OC/C=C\CCC(=O)O)cc1 (stereo not given in full) | 0.0158 µM | 0.0158 µM | –
NC(=O)Nc1ccccc1-c1ccc(COC2CC[C@H](N3CCCCCC3)[C@H]2OC/C=C\CCC(=O)O)cc1 (stereo not given in full) | 0.0631 µM | 0.00794 µM | –
NC(=O)Cc1ccccc1-c1ccc(COC2CC[C@H](N3CCCCCC3)[C@H]2OC/C=C\CCC(=O)O)cc1 (stereo not given in full) | 0.158 µM | 0.00794 µM | –
CC(=O)NCc1ccccc1-c1ccc(COC2CC[C@H](N3CCCCCC3)[C@H]2OC/C=C\CCC(=O)O)cc1 (stereo not given in full) | 0.126 µM | 0.0251 µM | –
NC(=O)c1ccc(-c2ccc(COC3CC[C@H](N4CCCCCC4)[C@H]3OC/C=C\CCC(=O)O)cc2)cc1 (stereo not given in full) | 0.02 µM | 0.00316 µM | –
CS(=O)(=O)Nc1ccccc1-c1ccc(COC2CC[C@H](N3CCCCCC3)[C@H]2OC/C=C\CCC(=O)O)cc1 (stereo not given in full) | 0.00398 µM | 0.01 µM | –
CNS(=O)(=O)Cc1ccccc1-c1ccc(COC2CC[C@H](N3CCCCCC3)[C@H]2OC/C=C\CCC(=O)O)cc1 (stereo not given in full) | 0.0126 µM | 0.00794 µM | –
O=C(O)CC/C=C\CO[C@H]1[C@@H](OCc2ccc(-c3ccc(CO)cc3)cc2)CC[C@@H]1N1CCCCCC1 | 0.0501 µM | 0.00398 µM | –
CS(=O)(=O)Nc1cccc(-c2ccc(COC3CC[C@H](N4CCCCCC4)[C@H]3OC/C=C\CCC(=O)O)cc2)c1 (stereo not given in full) | 0.0501 µM | 0.0126 µM | –
NC(=O)Cc1ccc(-c2ccc(COC3CC[C@H](N4CCCCCC4)[C@H]3OC/C=C\CCC(=O)O)cc2)cc1 (stereo not given in full) | 0.02 µM | 0.00398 µM | –

Results, then the compound that gave them:

Kb [1] | Kb [2] | pKb [3] | Structure (SMILES)
0.0251 µM | 0.0126 µM | – | O=C(O)CC/C=C\CO[C@H]1C(OCc2ccc(-c3ccccc3)cc2)CC[C@@H]1N1CCCCCC1 (stereo not given in full)
1 µM | 0.1 µM | – | O=C(O)CC/C=C\CO[C@@H]1[C@@H](OCc2ccc(-c3ccccc3)cc2)CC[C@@H]1N1CCCCC1
0.0316 µM and 0.0501 µM | 0.01 µM and 0.00794 µM | – | O=C(O)CC/C=C\CO[C@H]1[C@@H](OCc2ccc(-c3ccccc3)cc2)CC[C@@H]1N1CCCCC1
0.00631 µM | 0.00316 µM | – | O=C(O)CC/C=C\CO[C@H]1C(OCc2ccc(-c3ccccc3CO)cc2)CC[C@@H]1N1CCCCCC1 (stereo not given in full)
– | 0.00631 µM | 8.5 | O=C(O)CC/C=C\CO[C@H]1[C@H](OCc2ccc(-c3ccccc3CO)cc2)CC[C@@H]1N1CCCCCC1
0.02 µM | 0.0158 µM | – | O=C(O)CC/C=C\CO[C@H]1C(OCc2ccc(-c3ccccc3O)cc2)CC[C@@H]1N1CCCCCC1 (stereo not given in full)
0.00631 µM | 0.00631 µM | – | O=C(O)CC/C=C\CO[C@H]1C(OCc2ccc(-c3ccc(O)cc3)cc2)CC[C@@H]1N1CCCCCC1 (stereo not given in full)
0.0158 µM | 0.0398 µM | – | O=C(O)CC/C=C\CO[C@@H]1C(OCc2ccc(-c3ccccc3)cc2)CC[C@@H]1N1CCCCC1 (stereo not given in full)
0.0126 µM | 0.00158 µM | – | O=C(O)CC/C=C\CO[C@H]1[C@@H](OCc2ccc(-c3ccccc3CO)cc2)CC[C@@H]1N1CCCCCC1
– | 0.0631 µM and 0.0158 µM | – | O=C(O)CC/C=C\CO[C@H]1C(OCc2ccc(-c3ccccc3)cc2)CC[C@@H]1N1CCCCC1 (stereo not given in full)
0.0398 µM | 0.00501 µM | – | O=C(O)CC/C=C\CO[C@H]1[C@@H](OCc2ccc(-c3ccccc3)cc2)CC[C@@H]1N1CCCCCC1
0.0126 µM | 0.00794 µM | – | O=C(O)CC/C=C\CO[C@H]1C(OCc2ccc(-c3cccc(CO)c3)cc2)CC[C@@H]1N1CCCCCC1 (stereo not given in full)

Reference: ChEMBL document CHEMBL1125965, “Synthesis and pharmacological evaluation of novel Amino-prostanoids: potent and orally effective thromboxane A2 receptor antagonists” (Bioorg Med Chem Lett, 1991)
